The text below walks through data of US20220354863A1, “METHODS FOR THE PROPHYLACTIC TREATMENT OF CANCER IN PATIENTS SUFFERING FROM PANCREATITIS” (INSERM (INSTITUT NATIONAL DE LA SANTÈ ET DE LA RECHERCH …, priority 2019, published 2022).

The structures appear in SMILES notation.

Usually IC50 stands for the concentration at which inhibition is half-maximal. For orientation: Ki means the equilibrium dissociation constant of an inhibitor or competing ligand from its target.

Assay [1] concerns caerulein-treated KC mice. The experiment in a line: Caerulein-induced pancreatic injury in oncogenic Kras (KC) mice. Format: in vivo. The settings on record: KrasG12D background, 10 mg/kg by gavage. The text has this:
The LSL-Kras^G12D (from D Tuveson, Mouse Models of Human Cancers Consortium repository (NCI-Frederick, USA), Pdx1-cre (from DA Melton, Harvard University, Cambridge, Mass., USA), p110α^lox (from B. Vanhaesebroeck, UCL, London), strains were interbred on mixed background (CD1/C57B16) to obtain compound mutant Pdx1-Cre;LSL-Kras^G12D (named KC), pdx1-Cre;p110α^lox/lox (Pdx1-Cre;p110α^lox/lox were named α^inC; pdx1-Cre;LSL-Kras^G12D;p110α^lox/lox were named Kα^inC). Littermates not expressing Cre as well as Pdx1-Cre and p110α^lox/lox mice of the same age were used as control. All procedures and animal housing are conformed to the regulatory standards and were approved by the Ethical committee according to European legislation translated to French Law as Décret 2013-118 1 Feb. 2013 (APAFIS 3601-2015121622062840). Genotyping was performed as described: the genetically modified allele is called p110α^lox or p110α^ΔDFG (here named Rec) after Cre recombination. DFG is a conserved motif in the activation loop of the p110α kinase domain critical for its catalytic activity. The gene targeting strategy used is different from a traditional conditional knock-out strategy. […] Primers corresponds to post-cre primers used to verify the presence of recombined allele ΔDFG: ma9: -[…]; ma5: […]; annealing temperature: 65° C.; recombined ΔDFG-544 bp, wild type (+) or unrecombined lox- >10 kbp amplicon. Genotyping of tail or pancreas samples was performed after DNA extraction with Sigma kit (XNAT-100RXN).
Animals were euthanized 1, 3, 7 or 17 days later, and recombination verified before analysis as described in [44, 45].
Immunostainings were conducted using standard methods on formalin-fixed, paraffin-embedded tissues, including both mice and human pancreas.

The target of another assay is p110β (Homo sapiens, UniProt P42338). The settings on record: read-out: in vitro IC50 β; cited from earlier work.
Sequence of p110β (P42338 whole entry): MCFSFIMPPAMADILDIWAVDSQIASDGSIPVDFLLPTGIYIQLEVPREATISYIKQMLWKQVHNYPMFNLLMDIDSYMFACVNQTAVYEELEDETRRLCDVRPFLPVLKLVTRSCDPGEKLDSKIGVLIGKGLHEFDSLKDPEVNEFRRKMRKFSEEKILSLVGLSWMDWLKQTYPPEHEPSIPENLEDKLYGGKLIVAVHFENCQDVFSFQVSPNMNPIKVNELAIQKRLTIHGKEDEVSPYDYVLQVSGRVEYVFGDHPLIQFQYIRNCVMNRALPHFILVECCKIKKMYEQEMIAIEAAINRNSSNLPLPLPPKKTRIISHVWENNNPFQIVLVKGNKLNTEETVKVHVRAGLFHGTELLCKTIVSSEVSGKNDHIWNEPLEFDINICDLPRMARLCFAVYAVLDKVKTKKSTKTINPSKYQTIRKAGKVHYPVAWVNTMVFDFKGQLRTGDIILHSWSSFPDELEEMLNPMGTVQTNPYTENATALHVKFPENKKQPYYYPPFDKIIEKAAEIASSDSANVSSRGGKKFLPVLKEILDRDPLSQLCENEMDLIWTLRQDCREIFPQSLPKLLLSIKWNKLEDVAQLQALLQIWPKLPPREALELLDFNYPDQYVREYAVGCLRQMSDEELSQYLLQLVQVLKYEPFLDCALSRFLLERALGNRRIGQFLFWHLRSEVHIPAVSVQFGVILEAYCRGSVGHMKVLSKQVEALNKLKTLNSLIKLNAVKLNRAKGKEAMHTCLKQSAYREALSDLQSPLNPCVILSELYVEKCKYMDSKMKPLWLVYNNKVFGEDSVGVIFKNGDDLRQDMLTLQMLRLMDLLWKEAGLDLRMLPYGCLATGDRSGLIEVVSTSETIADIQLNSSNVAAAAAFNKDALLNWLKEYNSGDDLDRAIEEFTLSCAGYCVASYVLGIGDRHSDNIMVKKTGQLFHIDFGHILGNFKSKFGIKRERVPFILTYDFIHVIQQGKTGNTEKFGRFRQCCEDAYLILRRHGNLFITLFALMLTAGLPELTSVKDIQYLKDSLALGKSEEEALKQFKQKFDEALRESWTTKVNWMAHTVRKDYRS
Sequence of p110β (P27986 whole entry partner): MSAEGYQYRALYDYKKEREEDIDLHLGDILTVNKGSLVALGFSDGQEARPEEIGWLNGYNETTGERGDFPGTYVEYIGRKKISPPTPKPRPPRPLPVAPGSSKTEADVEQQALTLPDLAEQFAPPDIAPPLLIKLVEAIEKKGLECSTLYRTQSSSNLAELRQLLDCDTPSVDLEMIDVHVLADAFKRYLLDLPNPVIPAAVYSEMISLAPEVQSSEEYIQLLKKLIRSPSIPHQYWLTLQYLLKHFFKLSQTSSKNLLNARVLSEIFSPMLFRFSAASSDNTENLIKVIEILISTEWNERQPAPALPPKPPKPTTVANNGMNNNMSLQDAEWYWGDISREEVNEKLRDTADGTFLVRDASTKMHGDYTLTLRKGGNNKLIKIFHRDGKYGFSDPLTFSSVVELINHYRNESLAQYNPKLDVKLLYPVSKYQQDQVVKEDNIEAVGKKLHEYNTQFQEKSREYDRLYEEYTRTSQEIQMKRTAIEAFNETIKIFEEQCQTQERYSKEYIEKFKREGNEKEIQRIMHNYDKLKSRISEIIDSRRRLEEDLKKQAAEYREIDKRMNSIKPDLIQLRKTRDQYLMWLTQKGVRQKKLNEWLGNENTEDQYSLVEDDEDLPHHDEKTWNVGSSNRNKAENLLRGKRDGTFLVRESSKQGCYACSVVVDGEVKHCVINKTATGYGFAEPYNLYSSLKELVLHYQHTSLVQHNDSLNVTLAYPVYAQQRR
The next assay addresses p110δ (Homo sapiens, UniProt O00329). The settings on record: read-out: in vitro IC50 δ; cited from earlier work.
A further assay addresses p110γ (Homo sapiens, UniProt P48736). The settings on record: read-out: in vitro IC50 γ; cited from earlier work.
Another assay addresses mTOR (Homo sapiens, UniProt P42345). To be noted: cited from earlier work.
The next assay has as its target C2β (Homo sapiens, UniProt O00750). The settings on record: read-out: in vitro IC50 C2β; cited from earlier work.
The next assay deals with C2α (Homo sapiens, UniProt O00443). To be noted: read-out: in vitro IC50 C2α; cited from earlier work.
In a further assay the target is vps34 (Homo sapiens, UniProt Q8NEB9). The settings on record: read-out: in vitro IC50 vps34; cited from earlier work.
Sequence of vps34 (Q8NEB9 whole entry, species assumed): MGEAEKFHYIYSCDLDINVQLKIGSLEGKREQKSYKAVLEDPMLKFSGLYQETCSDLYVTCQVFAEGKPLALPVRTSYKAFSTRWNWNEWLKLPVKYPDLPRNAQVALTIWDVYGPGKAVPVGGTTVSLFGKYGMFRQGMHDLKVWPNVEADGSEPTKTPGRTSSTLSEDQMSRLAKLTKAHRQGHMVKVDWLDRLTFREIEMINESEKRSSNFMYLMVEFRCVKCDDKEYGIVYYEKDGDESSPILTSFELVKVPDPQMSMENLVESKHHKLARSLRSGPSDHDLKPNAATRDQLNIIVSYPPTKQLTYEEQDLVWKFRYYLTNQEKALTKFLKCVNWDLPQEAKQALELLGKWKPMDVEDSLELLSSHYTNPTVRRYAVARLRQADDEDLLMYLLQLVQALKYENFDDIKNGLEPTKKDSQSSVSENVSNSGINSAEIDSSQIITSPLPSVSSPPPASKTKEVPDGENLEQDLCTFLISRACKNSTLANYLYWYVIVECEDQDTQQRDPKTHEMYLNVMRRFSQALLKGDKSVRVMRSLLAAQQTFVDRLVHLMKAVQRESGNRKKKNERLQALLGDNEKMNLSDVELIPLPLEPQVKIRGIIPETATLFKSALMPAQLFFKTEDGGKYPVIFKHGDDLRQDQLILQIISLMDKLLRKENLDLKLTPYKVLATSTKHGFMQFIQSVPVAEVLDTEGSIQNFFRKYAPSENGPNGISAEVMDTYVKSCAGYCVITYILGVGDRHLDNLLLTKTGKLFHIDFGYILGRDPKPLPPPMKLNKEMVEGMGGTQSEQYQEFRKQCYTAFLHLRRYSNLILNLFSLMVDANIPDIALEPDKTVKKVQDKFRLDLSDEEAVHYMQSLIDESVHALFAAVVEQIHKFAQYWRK

Sequence of p110γ (P48736 whole entry): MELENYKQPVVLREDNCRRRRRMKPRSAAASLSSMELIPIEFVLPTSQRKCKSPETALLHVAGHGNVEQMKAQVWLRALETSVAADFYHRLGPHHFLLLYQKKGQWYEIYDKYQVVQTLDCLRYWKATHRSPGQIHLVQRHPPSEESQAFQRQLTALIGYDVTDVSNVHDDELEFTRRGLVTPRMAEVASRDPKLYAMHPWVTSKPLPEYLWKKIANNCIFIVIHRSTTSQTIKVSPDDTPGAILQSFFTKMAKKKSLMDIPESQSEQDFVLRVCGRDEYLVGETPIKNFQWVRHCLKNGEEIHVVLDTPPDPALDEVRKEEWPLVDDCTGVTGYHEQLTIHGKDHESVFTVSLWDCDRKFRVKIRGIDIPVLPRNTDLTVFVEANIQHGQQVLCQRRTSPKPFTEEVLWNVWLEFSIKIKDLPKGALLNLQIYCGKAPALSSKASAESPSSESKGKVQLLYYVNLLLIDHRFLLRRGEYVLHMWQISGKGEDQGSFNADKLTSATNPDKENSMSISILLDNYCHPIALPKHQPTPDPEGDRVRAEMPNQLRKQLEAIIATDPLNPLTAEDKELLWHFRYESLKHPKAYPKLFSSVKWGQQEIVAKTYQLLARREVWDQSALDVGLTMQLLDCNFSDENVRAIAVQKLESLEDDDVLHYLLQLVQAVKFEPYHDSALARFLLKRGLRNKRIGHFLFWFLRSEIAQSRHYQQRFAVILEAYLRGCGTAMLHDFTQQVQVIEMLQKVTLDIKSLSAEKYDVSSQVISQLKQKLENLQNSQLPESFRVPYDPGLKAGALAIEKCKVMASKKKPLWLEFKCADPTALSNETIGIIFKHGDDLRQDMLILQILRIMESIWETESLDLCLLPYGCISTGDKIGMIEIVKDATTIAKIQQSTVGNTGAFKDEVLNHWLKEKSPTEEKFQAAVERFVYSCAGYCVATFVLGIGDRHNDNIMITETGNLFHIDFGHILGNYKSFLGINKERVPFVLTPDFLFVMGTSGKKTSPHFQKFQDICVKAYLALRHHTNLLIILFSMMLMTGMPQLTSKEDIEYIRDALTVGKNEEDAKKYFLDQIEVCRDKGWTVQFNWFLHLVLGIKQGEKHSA
Sequence of p110δ (O00329 whole entry): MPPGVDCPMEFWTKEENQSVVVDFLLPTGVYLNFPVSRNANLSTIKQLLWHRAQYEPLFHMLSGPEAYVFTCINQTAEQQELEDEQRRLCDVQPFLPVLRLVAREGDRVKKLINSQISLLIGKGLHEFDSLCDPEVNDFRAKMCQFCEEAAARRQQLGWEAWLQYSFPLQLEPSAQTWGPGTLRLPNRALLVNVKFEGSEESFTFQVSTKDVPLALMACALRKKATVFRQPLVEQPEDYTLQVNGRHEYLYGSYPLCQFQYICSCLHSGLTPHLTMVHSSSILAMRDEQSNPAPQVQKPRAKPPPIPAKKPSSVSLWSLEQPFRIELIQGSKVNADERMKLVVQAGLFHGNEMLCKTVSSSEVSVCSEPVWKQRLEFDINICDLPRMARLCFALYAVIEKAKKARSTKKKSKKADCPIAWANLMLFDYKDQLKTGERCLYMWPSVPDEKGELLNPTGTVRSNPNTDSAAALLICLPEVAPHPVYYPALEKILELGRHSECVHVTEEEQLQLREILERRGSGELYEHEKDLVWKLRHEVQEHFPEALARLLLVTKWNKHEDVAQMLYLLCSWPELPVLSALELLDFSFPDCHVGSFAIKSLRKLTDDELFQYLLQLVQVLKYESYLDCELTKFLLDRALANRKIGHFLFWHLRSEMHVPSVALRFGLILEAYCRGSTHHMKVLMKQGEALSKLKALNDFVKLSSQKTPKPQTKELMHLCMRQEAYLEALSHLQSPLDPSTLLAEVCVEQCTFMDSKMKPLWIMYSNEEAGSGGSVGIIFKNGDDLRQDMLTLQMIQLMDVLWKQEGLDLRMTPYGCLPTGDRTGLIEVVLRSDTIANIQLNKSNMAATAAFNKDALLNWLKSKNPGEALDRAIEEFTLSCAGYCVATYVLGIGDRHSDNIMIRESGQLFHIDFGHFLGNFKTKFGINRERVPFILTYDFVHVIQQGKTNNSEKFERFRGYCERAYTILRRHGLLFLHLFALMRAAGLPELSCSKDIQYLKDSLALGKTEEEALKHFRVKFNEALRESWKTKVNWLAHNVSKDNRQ
Sequence of p110δ (P27986 whole entry partner): as the sequence (P27986 whole entry partner) above

Consider `CC(C)n1ncnc1-c1cn2c(n1)-c1ccc(O[C@@H](C)C(N)=O)cc1OCC2` [GDC0326, (S)-2-((2-(1-Isopropyl-1H-1,2,4-triazol-5-yl)-5,6-dihydrobenzo[f]imidazo [1,2-d][1,4]oxazepin-9-yl)oxy)propanamide], for which, in assay [1], the “activation of the stromal compartment (CD18 immune cell staining, picrosirius red collagen deposit staining)” value is “reversed the activation of the stromal compartment”. Further, in assay [1] (day 17, compared to caerulein-treated KC mice that received vehicle), the lesion area entry is reported as “significant decrease of lesion area”. For the same compound, the p-Akt substrate staining entry in assay [1] (day 17, vs vehicle) is given as “absence of p-Akt Subsrate staining”. For the same compound, the IC50 at p110β was 133 nM; on p110δ, 20 nM; at p110γ it was 51 nM; on C2β, 261 nM; at C2α, above 10000 nM; at vps34, 2840 nM. In addition, the Ki on mTOR is 4300 nM.
